Where two headings read alike, the source gives them in different places.
What was measured:
[1] = Study-1 Part-B multiple ascending dose pharmacokinetics (plasma and urine); assay type: in vivo, human; conditions: for Fe(0–24) / CLss/F / Cmaxss / Ctrough / Vzss/F / AUC(0-t) / Tmax / Cmax / half-life / CL renal / Ae(0–24): Study-1 Part-B; for Fe(0–24) / CLss/F / Cmaxss / Ctrough / Vzss/F / AUC(0-t) / Cmax / half-life / CL renal / Ae(0–24): geo mean (GeoCV%); for AUC(0-t) / Tmax / Cmax / half-life / CL renal: human, oral; for AUC(0-t) / Tmax / Cmax / half-life: plasma; for AUC(0-t): read-out: AUC(0–24); for CL renal: urine and plasma; for Ae(0–24): urine
Source text: (§1) These were phase I, randomised, double-blind, placebo-controlled studies designed to evaluate the safety, tolerability, PK and PD profiles of seletalisib following oral administration of single ascending doses and multiple ascending doses. Study-1 was a first-in-human, double-blind (sponsor-, investigator- and subject-blind) study that had two parts: Part-A evaluated seletalisib (single ascending doses) in healthy adults (including evaluation of food effects; Table 1); Part-B evaluated seletalisib (multiple ascending doses) in healthy adults and subjects with mild-to-moderate psoriasis. Study-2 was also a double-blind study of seletalisib (single and multiple ascending doses) in healthy subjects, which investigated higher doses.
(§2) Plasma concentrations of seletalisib were measured by high-performance liquid chromatography with tandem mass spectrometry (see Online Resource S1 for further details). The following PK parameters were determined in each study: AUC for seletalisib, maximum observed plasma concentration of seletalisib after a single dose (Cmax) and at steady-state (Cmaxss), time of occurrence of Cmax (tmax, obtained directly from the observed plasma concentration-time curves), minimum observed plasma concentration of seletalisib at steady-state immediately before the next dose would be administered (Ctrough), apparent terminal half-life, apparent volume of distribution after single dosing (Vz/F) and at steady-state (Vzss/F) and apparent total body clearance after single dosing (CL/F) and at steady-state (CLss/F). Accumulation factor based on AUC(0–24) [R(AUC)] and accumulation factor based on Cmax [R(Cmax)] were determined on multiple dose day 14. The following study-specific PK parameters were also determined: Study-1, total amount of seletalisib excreted in urine (Ae), renal clearance (CLr) and fraction of drug excreted in urine; Study-2, AUC(0–10) in BID dose groups, terminal elimination rate constant in plasma (λz), mean residence time (MRT) and linearity factor (LF [AUC(0–24)ss/AUC]).
(§3) Methods for the calculation of seletalisib PK parameters are detailed in Online Resource S1.
(§4) Seletalisib PK parameters were calculated via non-compartmental analysis methods from the individual concentration-time data using Phoenix WinNonlin version 6.2 (Certara, Princeton, NJ, USA). Urine (Study-1 only) and plasma PK parameters of seletalisib were reported for each subject and summarised by study part and dose group. Geometric mean and percentage geometric coefficient of variation (GeoCV%) were reported for all parameters except for tmax, which was reported using median and range. Dose proportionality for AUC and Cmax at Day_1 (Study-1 [Part-A & Part-B]; Study-2, single ascending dose-Day_1) and at steady state at Day_14 (Study-1 [Part-B]; Study-2, multiple ascending dose-Day_14) was examined via the power model and reported graphically. In Study-1, an assessment of food effect (fed versus fasted) was made for Cmax and AUC from the data for subjects who received the same dose in fed and fasted states in Part-A.

[2] = Study-1 Part-A single ascending dose pharmacokinetics (plasma and urine); assay type: in vivo, human; conditions: for Fe: fraction excreted in urine; for AUC / AUC(0-t) / Cmax / Vd/F / half-life / Tmax / CL renal: human, oral; for AUC / AUC(0-t) / Cmax / Vd/F / half-life / Tmax: plasma; for Vd/F: read-out: Vz/F; for CL renal: urine and plasma; for Ae(0–t): urine
Source text: as §1, §2, §3, §4

[3] = power model, Study-1 Part B Day 14
[4] = Study-1 Part-A, single dose 1 mg fasted, geo mean (GeoCV%)
[5] = Study-1 Part-A, single dose 5 mg fasted, geo mean (GeoCV%)
[6] = Study-1 Part-A, single dose 5 mg fed, geo mean (GeoCV%)
[7] = Study-1 Part-A, single dose 10 mg fasted, geo mean (GeoCV%)
[8] = Study-1 Part-A, single dose 15 mg fasted, geo mean (GeoCV%)
[9] = 1 mg, Study-1 Part-A, single dose 1 mg fasted, geo mean (GeoCV%)
[10] = 5 mg, Study-1 Part-A, single dose 5 mg fasted, geo mean (GeoCV%)
[11] = 5 mg, Study-1 Part-A, single dose 5 mg fed, geo mean (GeoCV%)
[12] = 10 mg, Study-1 Part-A, single dose 10 mg fasted, geo mean (GeoCV%)
[13] = 15 mg, Study-1 Part-A, single dose 15 mg fasted, geo mean (GeoCV%)

[O-][n+]1cccc(-c2nc3c(Cl)cccc3cc2[C@@H](Nc2ncnc3cccnc23)C(F)(F)F)c1 [Seletalisib, seletalisib]
geometric mean fraction of drug excreted in urine ([1]; Study-1 Part-A and Part-B, parent drug, across dose groups): ≤ 12%
Fe(0–24) ([1]; 5 mg, Day 1): 4.02 (32.2) %
CLss/F ([1]; 5 mg, Day 14): 1.97 (36.2) L/h
Cmaxss ([1]; 5 mg, Day 14): 175 (29.1) ng/mL
Ctrough ([1]; 5 mg, Day 14): 66.5 (47.3) ng/mL
Fe(0–24) ([1]; 5 mg, Day 14): 6.80 (40.0) %
Vzss/F ([1]; 5 mg, Day 14): 62.5 (20.0) L
Fe(0–24) ([1]; 8 mg, Day 1): 4.24 (51.9) %
CLss/F ([1]; 8 mg, Day 14): 1.83 (50.2) L/h
Cmaxss ([1]; 8 mg, Day 14): 285 (41.7) ng/mL
Ctrough ([1]; 8 mg, Day 14): 113 (67.8) ng/mL
Fe(0–24) ([1]; 8 mg, Day 14): 7.60 (26.3) %
Vzss/F ([1]; 8 mg, Day 14): 60.3 (40.1) L
Fe(0–24) ([1]; 15 mg, Day 1): 5.42 (48.2) %
CLss/F ([1]; 15 mg, Day 14): 2.75 (29.9) L/h
Cmaxss ([1]; 15 mg, Day 14): 414 (23.0) ng/mL
Ctrough ([1]; 15 mg, Day 14): 140 (35.0) ng/mL
Fe(0–24) ([1]; 15 mg, Day 14): 12.0 (52.8) %
Vzss/F ([1]; 15 mg, Day 14): 89.0 (24.9) L
AUC(0-t) ([1]; 5 mg, 5 mg, Day 1): 1560 ng·h/mL
Tmax ([1]; 5 mg, 5 mg, Day 1, median (range), read-out: tmax): 4.01 h
AUC(0-t) ([1]; 5 mg, 5 mg, Day 14): 2540 ng·h/mL
Tmax ([1]; 5 mg, 5 mg, Day 14, median (range), read-out: tmax): 3 h
AUC(0-t) ([1]; 8 mg, 8 mg, Day 1): 2610 ng·h/mL
Tmax ([1]; 8 mg, 8 mg, Day 1, median (range), read-out: tmax): 4 h
AUC(0-t) ([1]; 8 mg, 8 mg, Day 14): 4370 ng·h/mL
Tmax ([1]; 8 mg, 8 mg, Day 14, median (range), read-out: tmax): 3.5 h
AUC(0-t) ([1]; 15 mg, 15 mg, Day 1): 3940 ng·h/mL
Tmax ([1]; 15 mg, 15 mg, Day 1, median (range), read-out: tmax): 3.01 h
AUC(0-t) ([1]; 15 mg, 15 mg, Day 14): 5460 ng·h/mL
Tmax ([1]; 15 mg, 15 mg, Day 14, median (range), read-out: tmax): 3 h
Tmax ([1]; day 1, fed, range across groups, read-out: time to peak plasma concentration): 3.01 to 4.01 h
Tmax ([1]; day 14, fed, range across groups, read-out: time to peak plasma concentration): 3 to 3.5 h
Cmax ([1]; 5 mg, Day 1): 122 ng/mL
half-life ([1]; 5 mg, Day 14): 22 h
Cmax ([1]; 8 mg, Day 1): 201 ng/mL
half-life ([1]; 8 mg, Day 14): 22.8 h
Cmax ([1]; 15 mg, Day 1): 322 ng/mL
half-life ([1]; 15 mg, Day 14): 22.5 h
CL renal ([1]; 5 mg, 5 mg, Day 1): 2.15 mL/min
CL renal ([1]; 5 mg, 5 mg, Day 14): 2.23 mL/min
CL renal ([1]; 8 mg, 8 mg, Day 1): 2.17 mL/min
CL renal ([1]; 8 mg, 8 mg, Day 14): 2.32 mL/min
CL renal ([1]; 15 mg, 15 mg, Day 1): 3.43 mL/min
CL renal ([1]; 15 mg, 15 mg, Day 14): 5.48 mL/min
Dose proportionality of Cmaxss (ng/mL): Dose (beta), Estimate [1, 3]: 0.78
Dose proportionality of Cmaxss (ng/mL): Intercept, Estimate [1, 3]: 3.95
Ae(0–24) ([1]; 5 mg, Day 1): 0.201 (32.2) mg
Ae(0–24) ([1]; 5 mg, Day 14): 0.340 (40.0) mg
Ae(0–24) ([1]; 8 mg, Day 1): 0.340 (51.9) mg
Ae(0–24) ([1]; 8 mg, Day 14): 0.608 (26.3) mg
Ae(0–24) ([1]; 15 mg, Day 1): 0.812 (48.2) mg
Ae(0–24) ([1]; 15 mg, Day 14): 1.80 (52.8) mg
food effect ([2]; Study-1 Part-A, 5 mg fed (high-fat, high-calorie meal) vs fasted): No clinically significant food effect
geometric mean fraction of drug excreted in urine ([2]; Study-1 Part-A, parent drug, across dose groups): < 6%
CL/F [2, 4]: 1.93 (33.4) L/h
CL/F [2, 5]: 2.19 (34.3) L/h
CL/F [2, 6]: 1.87 (44.6) L/h
CL/F [2, 7]: 1.93 (17.3) L/h
CL/F [2, 8]: 1.93 (25.4) L/h
Fe [2, 4]: 5.79 (56.6) %
Fe [2, 5]: 5.37 (35.3) %
Fe [2, 6]: 4.81 (49.6) %
Fe [2, 7]: 4.76 (66.0) %
Fe [2, 8]: 4.59 (33.6) %
AUC [2, 9]: 518 ng·h/mL
AUC(0-t) [2, 9]: 473 ng·h/mL
Cmax [2, 9]: 26.7 ng/mL
Vd/F [2, 9]: 51.5 L
half-life ([2]; 1 mg, Study-1 Part-A, single dose 1 mg fasted, geo mean (GeoCV%), read-out: t1/2 (converted)): 18.5 h
Tmax ([2]; 1 mg, Study-1 Part-A, single dose 1 mg fasted, median (range), read-out: tmax): 1.77 h
AUC [2, 10]: 2290 ng·h/mL
AUC(0-t) [2, 10]: 2100 ng·h/mL
Cmax [2, 10]: 109 ng/mL
Vd/F [2, 10]: 59.2 L
half-life ([2]; 5 mg, Study-1 Part-A, single dose 5 mg fasted, geo mean (GeoCV%), read-out: t1/2 (converted)): 18.8 h
Tmax ([2]; 5 mg, Study-1 Part-A, single dose 5 mg fasted, median (range), read-out: tmax): 2.01 h
AUC [2, 11]: 2680 ng·h/mL
AUC(0-t) [2, 11]: 2480 ng·h/mL
Cmax [2, 11]: 105 ng/mL
Vd/F [2, 11]: 47.6 L
half-life ([2]; 5 mg, Study-1 Part-A, single dose 5 mg fed, geo mean (GeoCV%), read-out: t1/2 (converted)): 17.7 h
Tmax ([2]; 5 mg, Study-1 Part-A, single dose 5 mg fed, median (range), read-out: tmax): 4 h
AUC [2, 12]: 5170 ng·h/mL
AUC(0-t) [2, 12]: 4800 ng·h/mL
Cmax [2, 12]: 279 ng/mL
Vd/F [2, 12]: 54 L
half-life ([2]; 10 mg, Study-1 Part-A, single dose 10 mg fasted, geo mean (GeoCV%), read-out: t1/2 (converted)): 19.4 h
Tmax ([2]; 10 mg, Study-1 Part-A, single dose 10 mg fasted, median (range), read-out: tmax): 1.77 h
AUC [2, 13]: 7760 ng·h/mL
AUC(0-t) [2, 13]: 7000 ng·h/mL
Cmax [2, 13]: 313 ng/mL
Vd/F [2, 13]: 58.7 L
half-life ([2]; 15 mg, Study-1 Part-A, single dose 15 mg fasted, geo mean (GeoCV%), read-out: t1/2 (converted)): 21.1 h
Tmax ([2]; 15 mg, Study-1 Part-A, single dose 15 mg fasted, median (range), read-out: tmax): 3 h
half-life ([2]; Study-1, range across dose groups, read-out: geometric mean t1/2): 17.7 to 21.1 h
Tmax ([2]; Study-1 Part-A, single dose, range across fasted treatment groups, read-out: median tmax): 1.8 to 3 h
CL renal [2, 9]: 1.87 mL/min
CL renal [2, 10]: 1.95 mL/min
CL renal [2, 11]: 1.5 mL/min
CL renal [2, 12]: 1.53 mL/min
CL renal [2, 13]: 1.48 mL/min
Ae(0–t) [2, 4]: 0.058 (56.6) mg
Ae(0–t) [2, 5]: 0.269 (35.3) mg
Ae(0–t) [2, 6]: 0.241 (49.6) mg
Ae(0–t) [2, 7]: 0.476 (66.0) mg
Ae(0–t) [2, 8]: 0.689 (33.6) mg

— publication PMC5384962, “First-in-human studies of seletalisib, an orally bioavailable small-molecule PI3Kδ inhibitor for the treatment of immune and inflammatory diseases” (European Journal of Clinical Pharmacology, 2017)
